Several values for one entry are separate records, joined by “and”; a condition that tells them apart may be missing. Equal values may be shown once. Read-outs that look alike come from different tables or passages of the source. Where a SMILES comes first, the peptide text is derived from it. Bridges are numbered along the chain shown (N, C = ends). Where no end group is shown, it is not given here. [ ]: non-standard residue; d: D form. The star is where a group is joined. 5FAM = O=C1OC2(c3ccc(O)cc3Oc3cc(O)ccc32)c2ccc(C(=O)*)cc21; R8 = C=CCCCCCC[C@@](C)(N)C(=O)O; S5 = C=CCCC[C@](C)(N)C(=O)O; Dap = NC[C@H](N)C(=O)O; Acryloyl = C=CC(=O)*; BrAc = O=C(CBr)*; ClAc = O=C(CCl)*; βAla = NCCC(=O)O
Experiments:
[1] = Glutathione reactivity assay (HPLC time course)
Experimental: To evaluate the reactivity toward off-target thiols, the acrylamide, bromoacetamide, and chloroacetamide covalent peptides were exposed to glutathione (10 equiv) in an HPLC time course assay over 96 h (Figure 4A). Here, a set of nonfluorescent peptides (2b, 3b, and 4b) were synthesized with an N-terminal tryptophan for quantification through absorbance measurements. Glutathione is the most abundant thiol in human cells,[40] and time point measurements were obtained by quenching reactions with cold acetonitrile containing TFA (0.1%) and 5-carboxyfluorescein as an internal standard.
Covalent peptides (100 μM) were diluted from 10 mM DMSO stock solutions (1% final DMSO content) and incubated in buffer (500 μL total volume; 50 mM Tris, 200 mM NaCl) with glutathione (10 equiv, 1 mM) at 37 °C. To quench the reaction, 10 μL of the reaction mixture was added to 100 μL of cold acetonitrile containing 0.1% TFA [v/v] and 10 μM fluorescein, included as an internal standard. Reaction mixtures were first analyzed by LCMS after 1 h of incubation to assign the glutathione adduct peak by comparison to mixtures quenched immediately following peptide addition. […] The AUC of the reacted covalent peptide was normalized to the AUC of the fluorescein standard. These values were plotted and fitted with nonlinear regression using GraphPad Prism software.

[2] = Off-target reactivity with DTT; format: physicochemical; settings: DTT 1 mM
[3] = target: T1, GST-E6 (GST-tagged HPV16 E6 protein) (Human papillomavirus type 16, UniProt P03126); assay: Noncompetitive fluorescence polarization (FP) binding assay; parameters: species or system Human Papillomavirus (HPV-16)
T1 construct: host or cells: E. coli BL21
Experimental: An N-terminal carboxyfluorescein was included for FP analysis of binding affinity for both the natural backbone and the stapled peptides.
For noncompetitive FP experiments, varying concentrations of GST-E6 protein (38 μM; 10 point 2-fold serial dilution) were incubated with 30 nM fluorescently labeled peptides in buffer (10 μL total volume; 50 mM Tris, 200 mM NaCl, 1 mM DTT, 0.1% [v/v] Trition X-100) in black 384-well plates. For competitive FP experiments, 100 nM GST-E6 was incubated with 30 nM fluorescently labeled noncovalent peptide and varying concentrations (20 μM; 3-fold serial dilution) of covalent peptide in buffer (20 μL) with a final DMSO content of 0.5% [v/v]. Negative control (polarization reference; 30 nM fluorescent peptide, no protein) and blank reference (buffer alone) were included in triplicate for G-factor calibration. Sample plates were centrifuged (1 min, 500g) and incubated for 30 min at RT. Following incubation, FP at equilibrium was measured on a Tecan M1000 microplate reader (ex = 470 nm, em = 525; gain optimized, 200 flashes, 300 ms settle time, G-factor reference value 30 mP). Measured polarizations were fitted to a sigmoidal dose–response curve using GraphPad Prism software to generate KD values.

[4] = target: bovine α-chymotrypsin (Bos taurus, UniProt P00766); assay: in vitro; settings: 50 μM peptide, 50 nM bovine α-chymotrypsin, pH 7.5, room temp, HPLC
Experimental: Chymotrypsin was chosen due to its substrate selectivity for peptides containing hydrophobic side chains, including leucine, making the LxxLL motif a well-suited substrate for proteolytic cleavage by this protease.[54]
For each time point, a 50 μL aliquot was removed from the reaction mixture and quenched with 40 μL of 0.5% [v/v] trifluoroacetic acid in acetonitrile. Quenched samples were subsequently analyzed by analytical reverse-phase HPLC, and the remaining undigested peptide was quantified by integration of AUC. A plot of percent peptide remaining vs time was fit to a one-phase exponential decay to calculate half-life using GraphPad Prism software.

[5] = target: T1, GST-E6 (GST-tagged HPV16 E6 protein); assay: Competitive fluorescence polarization assay against a fluorescent E6 peptide ligand; format: binding, Human Papillomavirus (HPV-16)
Experimental: Next, covalent inhibition was evaluated by using a competitive FP assay. Recombinant GST-E6 was pre-incubated with a fluorescently labeled ligand for 30 min before addition of varying concentrations of the non-fluorescent covalent peptides (Figure 4B). Fluorophore polarization is greatest when the ligand is bound to its target, and consequently, a displacement of the ligand by the covalent peptide results in a decrease in polarization.[41],[42] The formation of a covalent bond between the peptide inhibitor and the C58 residue within E6 is expected to occur more slowly than noncovalent binding, permitting characterization of the affinity of the peptides 2b, 3b, and 4b.[41] […]
For noncompetitive FP experiments, varying concentrations of GST-E6 protein (38 μM; 10 point 2-fold serial dilution) were incubated with 30 nM fluorescently labeled peptides in buffer (10 μL total volume; 50 mM Tris, 200 mM NaCl, 1 mM DTT, 0.1% [v/v] Trition X-100) in black 384-well plates. […] Following incubation, FP at equilibrium was measured on a Tecan M1000 microplate reader (ex = 470 nm, em = 525; gain optimized, 200 flashes, 300 ms settle time, G-factor reference value 30 mP). Measured polarizations were fitted to a sigmoidal dose–response curve using GraphPad Prism software to generate KD values.

[6] = target: T2, Glutathione S-transferase (GST) tagged HPV-16 E6 (Human papillomavirus type 16 (HPV-16), UniProt P03126 1-158); assay: fluorescence polarisation; GST-E6 titrated (from 38 μM, 10 point 2-fold serial dilution) against 30 nM fluorescent peptide; 50 mM Tris, 200 mM NaCl, 1 mM DTT, 0.1% Triton X-100; 30 min at RT; sigmoidal dose-response fit; settings: both partners purified
T2 construct: Oncoprotein E6 of human papillomavirus type 16; GST fusion printed as 47 kDa; also called GST-E6; E6-GST; source: E. coli BL21, purified (glutathione agarose)

[7] = target: T2, Glutathione S-transferase (GST) tagged …; assay: fluorescence polarisation; settings: both partners purified

T2 sequence (P03126 whole entry, the tested form may be a part): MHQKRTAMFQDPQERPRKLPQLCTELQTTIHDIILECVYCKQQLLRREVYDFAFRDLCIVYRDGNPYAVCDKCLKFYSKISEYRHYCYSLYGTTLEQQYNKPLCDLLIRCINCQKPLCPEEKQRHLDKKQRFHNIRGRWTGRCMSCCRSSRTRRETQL
T1 sequence (P03126 whole entry): as the sequence (P03126 whole entry, the tested form may be a part) above

Question: For C=CC(=O)NC[C@H](NC(=O)[C@H](CC(C)C)NC(=O)[C@H](CC(C)C)NC(=O)[C@H](CCC(=O)O)NC(=O)[C@H](CCC(N)=O)NC(=O)[C@H](CC(C)C)NC(=O)[C@@H](NC(=O)[C@H](CC(C)C)NC(=O)[C@H](CCC(=O)O)NC(=O)[C@H](C)NC(=O)[C@H](C)NC(=O)[C@H](C)NC(=O)CCNC(=O)[C@H](Cc1c[nH]c2ccccc12)NC(C)=O)[C@@H](C)O)C(N)=O [2b] (Ac-W[βAla]AAAELTLQELL[Dap](Acryloyl)-NH2), which “t1/2 of reaction with glutathione” value [1] is on record?
Answer: 10.3 h

Question: Which “t1/2 of reaction with glutathione” value ([1]; 100 μM peptide, glutathione 10 equiv (1 mM), 50 mM Tris, 200 mM NaCl, 1% DMSO, 37 °C, HPLC 280 nm, GSH adduct peak area, n = 3) does the source give for CC(=O)N[C@@H](Cc1c[nH]c2ccccc12)C(=O)NCCC(=O)N[C@@H](C)C(=O)N[C@@H](C)C(=O)N[C@@H](C)C(=O)N[C@@H](CCC(=O)O)C(=O)N[C@@H](CC(C)C)C(=O)N[C@H](C(=O)N[C@@H](CC(C)C)C(=O)N[C@@H](CCC(N)=O)C(=O)N[C@@H](CCC(=O)O)C(=O)N[C@@H](CC(C)C)C(=O)N[C@@H](CC(C)C)C(=O)N[C@@H](CNC(=O)CBr)C(N)=O)[C@@H](C)O [3b] (Ac-W[βAla]AAAELTLQELL[Dap](BrAc)-NH2) here?
Answer: 0.142 h

Question: And the “half-life of off-target reaction with DTT” value [2]?
Answer: 2.1 min

Question: With CC(C)C[C@H](NC(=O)[C@H](CC(C)C)NC(=O)[C@]1(C)CCCC=CCCC[C@](C)(NC(=O)[C@H](CCC(=O)O)NC(=O)[C@H](C)NC(=O)[C@H](C)NC(=O)[C@H](C)NC(=O)CCNC(=O)c2ccc3c(c2)C(=O)OC32c3ccc(O)cc3Oc3cc(O)ccc32)C(=O)N[C@@H]([C@@H](C)O)C(=O)N[C@@H](CC(C)C)C(=O)N[C@@H](CCC(N)=O)C(=O)N1)C(=O)NCC(N)=O [compound 7] ({5FAM-βAla}-AAAE[S5]TLQ[S5]LLG-NH2; staple 5-9) as the molecule, how does the Kd [3] read?
Answer: 3000 nM

Question: For CC(C)C[C@H](NC(=O)[C@H](CC(C)C)NC(=O)[C@H](CCC(=O)O)NC(=O)[C@]1(C)CCCC=CCCCCCC[C@@](C)(NC(=O)CCNC(=O)c2ccc3c(c2)C(=O)OC32c3ccc(O)cc3Oc3cc(O)ccc32)C(=O)N[C@@H](C)C(=O)N[C@@H](C)C(=O)N[C@@H](CCC(=O)O)C(=O)N[C@@H](CC(C)C)C(=O)N[C@@H]([C@@H](C)O)C(=O)N[C@@H](CC(C)C)C(=O)N1)C(=O)NCC(N)=O [compound 9] ({5FAM-βAla}-[R8]AAELTL[S5]ELLG-NH2; staple 1-8), which Kd [3] is on record?
Answer: 430 nM and < 1000 nM

Question: What about the “degradation by chymotrypsin within 4 h” value ([4]; 4 h) of the same molecule?
Answer: no degradation

Question: And the “degradation by chymotrypsin on continued incubation up to 16 h” value ([4]; up to 16 h)?
Answer: no significant degradation

Question: What does the source list for CC(=O)N[C@@H](Cc1c[nH]c2ccccc12)C(=O)NCCC(=O)N[C@@H](C)C(=O)N[C@@H](C)C(=O)N[C@@H](C)C(=O)N[C@@H](CCC(=O)O)C(=O)N[C@@H](CC(C)C)C(=O)N[C@H](C(=O)N[C@@H](CC(C)C)C(=O)N[C@@H](CCC(N)=O)C(=O)N[C@@H](CCC(=O)O)C(=O)N[C@@H](CC(C)C)C(=O)N[C@@H](CC(C)C)C(=O)N[C@@H](CNC(=O)CCl)C(N)=O)[C@@H](C)O [4b] (Ac-W[βAla]AAAELTLQELL[Dap](ClAc)-NH2)?
Answer: t1/2 of reaction with glutathione ([1]; 100 μM peptide, glutathione 10 equiv (1 mM), 50 mM Tris, 200 mM NaCl, 1% DMSO, 37 °C, up to 96 h, HPLC 280 nm, GSH adduct peak area, n = 3): 7.0 h; EC50 [5]: 40 nM

Question: For CC(C)C[C@H](NC(=O)[C@H](CC(C)C)NC(=O)[C@H](CCC(=O)O)NC(=O)[C@H](CCC(N)=O)NC(=O)[C@H](CC(C)C)NC(=O)[C@@H](NC(=O)[C@]1(C)CCCC=CCCC[C@](C)(NC(=O)CCNC(=O)c2ccc3c(c2)C(=O)OC32c3ccc(O)cc3Oc3cc(O)ccc32)C(=O)N[C@@H](C)C(=O)N[C@@H](C)C(=O)N[C@@H](CCC(=O)O)C(=O)N1)[C@@H](C)O)C(=O)NCC(N)=O [compound 5] ({5FAM-βAla}-[S5]AAE[S5]TLQELLG-NH2; staple 1-5), which Kd [3] is on record?
Answer: < 1000 nM

Question: Which Kd [3] does the source give for CC(C)C[C@H](NC(=O)[C@H](CC(C)C)NC(=O)[C@]1(C)CCCC=CCCCCCC[C@@](C)(NC(=O)[C@H](C)NC(=O)CCNC(=O)c2ccc3c(c2)C(=O)OC32c3ccc(O)cc3Oc3cc(O)ccc32)C(=O)N[C@@H](C)C(=O)N[C@@H](CCC(=O)O)C(=O)N[C@@H](CC(C)C)C(=O)N[C@@H]([C@@H](C)O)C(=O)N[C@@H](CC(C)C)C(=O)N[C@@H](CCC(N)=O)C(=O)N1)C(=O)NCC(N)=O [compound 10] ({5FAM-βAla}-A[R8]AELTLQ[S5]LLG-NH2; staple 2-9) here?
Answer: > 38000 nM

B1: (i, i + 4) stapled peptide 8 (peptide)
chain: {5FAM-βAla}-AAAELTL[S5]ELL[S5]-NH2
modifications: staple 8-12
SMILES: CC(C)C[C@@H]1NC(=O)[C@H](CCC(=O)O)NC(=O)[C@@](C)(NC(=O)[C@H](CC(C)C)NC(=O)[C@@H](NC(=O)[C@H](CC(C)C)NC(=O)[C@H](CCC(=O)O)NC(=O)[C@H](C)NC(=O)[C@H](C)NC(=O)[C@H](C)NC(=O)CCNC(=O)c2ccc3c(c2)C(=O)OC32c3ccc(O)cc3Oc3cc(O)ccc32)[C@@H](C)O)CCCC=CCCC[C@@](C)(C(N)=O)NC(=O)[C@H](CC(C)C)NC1=O
Question: For B1, which Kd [6] is on record?
Answer: 8000 nM

B2: (i, i + 4) stapled peptide 5 (peptide)
chain: {5FAM-βAla}-[S5]AAE[S5]TLQELLG
modifications: staple 1-5
Question: For B2, which Kd [6] is on record?
Answer: 590 nM

B3: nonfluorescent acrylamide covalent peptide 2b (peptide)
chain: AAAELTLQELL-{Dap(acrylamide)}
modifications: not fully specified (N-terminus)
Question: With B3 as the molecule, how does the EC50 [7] read?
Answer: 2070 nM

B4: (i, i + 7) stapled peptide 11 (peptide)
chain: {5FAM-βAla}-AAAE[R8]TLQELL[S5]
modifications: staple 5-12
Question: For B4, which Kd [6] is on record?
Answer: 7000 nM

B5: (i, i + 7) stapled peptide 9 (peptide)
chain: {5FAM-βAla}-[R8]AAELTL[S5]ELLG
modifications: staple 1-8
Question: Which Kd [6] does the source give for B5 here?
Answer: 431 nM

B6: (i, i + 4) stapled peptide 7 (peptide)
chain: {5FAM-βAla}-AAAE[S5]TLQ[S5]LLG-NH2
modifications: staple 5-9
SMILES: CC(C)C[C@H](NC(=O)[C@H](CC(C)C)NC(=O)[C@]1(C)CCCC=CCCC[C@](C)(NC(=O)[C@H](CCC(=O)O)NC(=O)[C@H](C)NC(=O)[C@H](C)NC(=O)[C@H](C)NC(=O)CCNC(=O)c2ccc3c(c2)C(=O)OC32c3ccc(O)cc3Oc3cc(O)ccc32)C(=O)N[C@@H]([C@@H](C)O)C(=O)N[C@@H](CC(C)C)C(=O)N[C@@H](CCC(N)=O)C(=O)N1)C(=O)NCC(N)=O
Question: Which Kd [6] does the source give for B6 here?
Answer: 3200 nM

B7: nonfluorescent bromoacetamide covalent peptide 3b (peptide)
chain: AAAELTLQELL-{Dap(bromoacetamide)}
modifications: not fully specified (N-terminus)
Question: For B7, which EC50 [7] is on record?
Answer: 2410 nM
